Data on 16 molecules can be found in paper PMC8655160, “Overcome Chemoresistance: Biophysical and Structural Analysis of Synthetic FHIT-Derived Peptides” (Frontiers in Molecular Biosciences, 2021).

For one experiment, the target named is T1, ANXA4 (Homo sapiens, UniProt P09525).
T1 construct: purchased Genscript lot N. U8886ED090-5/P3ED001
T1 sequence (P09525 1-319): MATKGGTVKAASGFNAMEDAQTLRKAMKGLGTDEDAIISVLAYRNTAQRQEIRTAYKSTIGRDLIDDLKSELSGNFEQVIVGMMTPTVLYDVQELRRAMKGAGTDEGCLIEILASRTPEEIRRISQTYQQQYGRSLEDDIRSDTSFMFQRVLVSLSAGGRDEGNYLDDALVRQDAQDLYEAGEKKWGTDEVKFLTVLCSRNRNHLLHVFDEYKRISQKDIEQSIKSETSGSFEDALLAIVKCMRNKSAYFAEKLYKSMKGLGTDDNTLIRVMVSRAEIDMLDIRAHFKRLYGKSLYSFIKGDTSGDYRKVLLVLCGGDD
Description: NanoDSF thermal unfolding of ANXA4 with peptides. In kind it is binding. To be noted: peptide 200 μM, protein 40 µM; for Tm (°C): ramp 20-95°C, Ctrl 48.5; for ΔTm at 200 µM: versus Ctrl. As for the experimental part:
The assay was carried out in PBS (pH 7.4, 5 mM CaCl2) buffer using 40 μM of protein and 200 μM of compounds. The samples were loaded into nanoDSF Grade Standard Capillaries (NanoTemper Technologies) and analyzed using the Prometheus NT.48 nanoDSF device (NanoTemper Technologies). Thermal unfolding of the protein was monitored using a linear thermal ramp (1°C/min; 20°C–95°C) with an excitation power of 90%. […] In control, the sample was replaced with buffer solution. Three independent measurements were carried out for each compound, and their mean is depicted. The fluorescence intensity ratio and its first derivative were calculated with the manufacturer’s software (PR.ThermControl, version 2.1.2).
NanoDSF is an advanced differential scanning fluorimetry method for measuring melting temperature (Tm) of peptide-protein complex. In nanoDSF, a protein in solution is exposed to a temperature gradient that leads to the unfolding of the protein. The intrinsic fluorescence of the protein, mainly originating from the aromatic sidechains of tyrosine and tryptophan residues, is examined. Upon unfolding, the environment of those residues alters because they become exposed to the solvent and, thus, their fluorescence intensity changes. The relation between fluorescence intensity changes and temperature gradient can be used to obtain a so-called apparent Tm.
Background: In DSF a fluorescence change marks the thermal transition of the protein.

Experiment [1] concerns Annexin A4 translocation in A549 and Calu-2 lung cancer cells. Details: method as in Gaudio et al., 2013. The following applies: A549 and Calu-2 lung cancer cells treated with paclitaxel; ref Gaudio et al., 2013; cited from earlier work.
The next experiment concerns A549 cells. It is filed as cell-based. The following applies: peptide (100 μM) + paclitaxel (800 nM); 72 h. As for the experimental part:
A549 were grown in appropriate medium (Sigma Aldrich, St. Louis, MO) supplemented with 10% fetal bovine serum (FBS) (Sigma Aldrich, St. Louis, MO), 1% penicillin/streptomycin (Sigma Aldrich, St. Louis, MO) at 37°C in a 5% CO2 incubator. A549, adenocarcinoma cells line, were treated using a combo of paclitaxel (800 nM, PTX) and peptides (10 μM, 50 μM, 100 µM). After 24, 48, and 72 h, 10 μL/well of CTG detection mix, from CellTiter-Glo Assay Kit (Promega Corp, Madison, United States), were added; plates were gently mixed, incubated for 10 min in the dark, and read using EnVision Multilabel 2103.  FIGURE 8 Inhibition of A549 cell viability in cells treated with paclitaxel (800 nM) and peptides 1–8 (100 μM). Cells were plated in triplicate in 384-well plates and treated with PTX and peptides (DMSO was used as a […] control) for 24, 48, or 72 h. Cell viability was measured using CellTiter assay as described in the Materials and Methods section. Cell viability was expressed as a percentage of control and each column represents the mean ± SD of three independent experiments.

Experiment [2] has as its target T2, His-tag-ANXA4 (annexin A4) (UniProt P09525 1-319, in MST only: labelled with His-Tag Labeling Kit RED-tris-NTA (NT647 fluorophore)).
T2 construct: annexin A4 (ANXA4); Probably human ANXA4, since the work is on human lung cancer cells; also called NT647-ANXA4; ANX4; source: expressed by Genscript (lot N. U8886ED090-5/P3ED001); not shown: His6, C-terminal, kept
T2 sequence (looked up): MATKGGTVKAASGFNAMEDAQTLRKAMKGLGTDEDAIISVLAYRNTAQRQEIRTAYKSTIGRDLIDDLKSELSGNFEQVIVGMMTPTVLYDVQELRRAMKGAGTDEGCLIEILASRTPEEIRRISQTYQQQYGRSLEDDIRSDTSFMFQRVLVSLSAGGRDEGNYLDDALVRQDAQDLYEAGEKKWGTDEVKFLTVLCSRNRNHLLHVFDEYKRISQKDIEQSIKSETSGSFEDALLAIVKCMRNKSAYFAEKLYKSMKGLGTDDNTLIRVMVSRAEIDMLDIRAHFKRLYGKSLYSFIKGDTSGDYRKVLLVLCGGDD
Description: SPR; Biacore T200; His-tag-ANXA4 captured on anti-histidine antibody coupled to CM5 chip; peptide 0.08-5 uM injected at 25 C, 30 uL/min, 120 s association, 600 s dissociation; HBS-P+ pH 7.4 with 5 mM CaCl2; global 1:1 fit, KD = kd/ka. The following applies: both partners purified.

Experiment [3] deals with T3, His-tag-ANXA4 (annexin A4) (UniProt P09525 1-319, in MST only: labelled with His-Tag Labeling Kit RED-tris-NTA (NT647 fluorophore)).
T3 chain: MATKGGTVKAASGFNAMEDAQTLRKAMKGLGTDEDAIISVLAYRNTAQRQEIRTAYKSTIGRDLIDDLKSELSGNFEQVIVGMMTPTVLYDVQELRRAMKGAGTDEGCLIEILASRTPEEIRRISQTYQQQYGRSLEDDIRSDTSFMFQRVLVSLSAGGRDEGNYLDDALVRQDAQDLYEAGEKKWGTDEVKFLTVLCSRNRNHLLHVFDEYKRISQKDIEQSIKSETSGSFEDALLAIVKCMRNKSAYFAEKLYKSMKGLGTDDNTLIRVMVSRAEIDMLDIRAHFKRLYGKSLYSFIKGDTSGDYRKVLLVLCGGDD
The experiment can be described thus: SPR.

Experiment [4] has as its target T2, His-tag-ANXA4 (annexin A4). The experiment can be described thus: MST; Monolith NT.115pico; 40 nM NT647-labelled ANXA4 mixed 1:1 with serial dilutions of peptide (highest 50 uM); PBS pH 7.4, 5 mM CaCl2; 10 min at rt; standard-treated capillaries, high MST power, LED 10%; duplicates. The following applies: both partners purified.

Regarding Ac-QHLIKPS-NH2 [peptide 1, QHLIKPS], on ANXA4, the “Tm (°C)” value came out at 48.6 °C and the shift in melting temperature (ΔTm) at 200 µM came out at 0.1 °C. For the same molecule, in experiment [1], the “Inhibition of Annexin A4 translocation from cytosol to plasma membrane” value is “inhibiting Annexin A4 translocation from cytosol to plasma membrane”.

As to Ac-QALIKPS-NH2 [peptide 7, QALIKPS], on ANXA4, the “Tm (°C)” value turned out to be 49.1 °C and the ΔTm at 200 µM is 0.6 °C. The “Biological activity in combination with paclitaxel compared to reference peptide 1 (in words)” value in the experiment on A549 cells is given as “slightly improves the paclitaxel cytotoxicity”.

In the case of Ac-QHLIAPS-NH2 [peptide 4, QHLIAPS], at ANXA4, the “Tm (°C)” value is 49.2 °C and the ΔTm at 200 µM came out at 0.7 °C.

On to Ac-QHLIKAS-NH2 [peptide 3, QHLIKAS], for which the ΔTm at 200 µM at ANXA4 was 0.5 °C.

On to Ac-AHLIKPS-NH2 [peptide 8, AHLIKPS], for which, at ANXA4, the “Tm (°C)” value came out at 48.9 °C and the shift in melting temperature (ΔTm) at 200 µM came out at 0.4 °C. The “Biological activity in combination with paclitaxel compared to reference peptide 1 (in words)” value in the experiment with A549 cells is recorded as “decrease of cell viability compared to reference peptide 1”.

Regarding Ac-QHLAKPS-NH2 [compound 5, QHLAKPS], on ANXA4, the “Tm (°C)” value stood at 49.2 °C and the ΔTm at 200 µM was determined as 0.7 °C.

For Ac-QHAIKPS-NH2 [peptide 6, QHAIKPS], at ANXA4, the “Tm (°C)” value stood at 48.9 °C and the shift in melting temperature (ΔTm) at 200 µM came to 0.4 °C. Moreover, in the experiment with A549 cells, the “Biological activity in combination with paclitaxel compared to reference peptide 1 (in words)” value is “slightly improves the paclitaxel cytotoxicity”.

For the molecule “Ac-QHLIKPA-NH2 (N-terminus and C-terminus assumed) [peptide 2, QHLIKPA]”, on ANXA4, the “Tm (°C)” value is 48.7 °C and the ΔTm at 200 µM turned out to be 0.2 °C. Further, in the experiment with A549 cells, the “Biological activity in combination with paclitaxel compared to reference peptide 1 (in words)” value is “basically preserves the biological activity”.

B1: FHIT mimetic peptide 7-13 (peptide 1) (peptide)
peptide: Ac-QHLIKPS-NH2
notes: FHIT (fragile histidine triad protein), residues 7-13; also called FHIT (7-13); lead peptide; source: synthetic peptide (Fmoc solid phase, RP-HPLC purified)
Take B1: the dissociation constant Kd in experiment [2] was determined as 840 ± 50 nM; in experiment [3], 1260 nM; in experiment [4] it was 4650 nM.

B2: peptide 6 (QHAIKPS) (peptide)
peptide: Ac-QHAIKPS-NH2
notes: FHIT residues 7-13 with Leu3 of the peptide replaced by Ala; numbers count on: the peptide (residue 1 = Gln7 of FHIT); Leu3 is L9 of FHIT; also called derivative 6; source: synthetic peptide (Fmoc solid phase, RP-HPLC purified)
Take B2: in experiment [4], the Kd stood at 6400 nM.

B3: peptide 7 (QALIKPS) (peptide)
peptide: Ac-QALIKPS-NH2
notes: FHIT residues 7-13 with His2 of the peptide replaced by Ala; numbers count on: the peptide (residue 1 = Gln7 of FHIT); His2 is H8 of FHIT; also called derivative 7; source: synthetic peptide (Fmoc solid phase, RP-HPLC purified)
As to B3, the values for the Kd in experiment [2] and in experiment [4] were 850 ± 55 nM and 1130 nM, respectively.

B4: peptide 4 (QHLIAPS) (peptide)
peptide: Ac-QHLIAPS-NH2
notes: FHIT residues 7-13 with Lys5 of the peptide replaced by Ala; numbers count on: the peptide (residue 1 = Gln7 of FHIT); Lys5 is K11 of FHIT; also called analogue 4; source: synthetic peptide (Fmoc solid phase, RP-HPLC purified)
Turning to B4, the Kd in experiment [2] was determined as 53 ± 10 nM; in experiment [4], 146 nM.

B5: peptide 2 (QHLIKPA) (peptide)
peptide: Ac-QHLIKPA-NH2
notes: FHIT residues 7-13 with Ser7 of the peptide replaced by Ala; numbers count on: the peptide (residue 1 = Gln7 of FHIT); Ser7 is S13 of FHIT; also called analogue 2; source: synthetic peptide (Fmoc solid phase, RP-HPLC purified)
For B5, the Kd in experiment [2] was found to be 552 ± 80 nM; in experiment [4], 218 nM.

B6: peptide 5 (QHLAKPS) (peptide)
peptide: Ac-QHLAKPS-NH2
notes: FHIT residues 7-13 with Ile4 of the peptide replaced by Ala; numbers count on: the peptide (residue 1 = Gln7 of FHIT); Ile4 is I10 of FHIT; also called analogue 5; source: synthetic peptide (Fmoc solid phase, RP-HPLC purified)
For B6, the dissociation constant Kd in experiment [4] was 1410 nM.

B7: peptide 8 (AHLIKPS) (peptide)
peptide: Ac-AHLIKPS-NH2
notes: FHIT residues 7-13 with Gln1 of the peptide replaced by Ala; numbers count on: the peptide (residue 1 = Gln7 of FHIT); Gln1 is Q7 of FHIT; also called analogue 8; source: synthetic peptide (Fmoc solid phase, RP-HPLC purified)
Take B7: the dissociation constant Kd in experiment [2] amounted to 1520 ± 330 nM; in experiment [4], 3040 nM.

B8: peptide 3 (QHLIKAS) (peptide)
peptide: Ac-QHLIKAS-NH2
notes: FHIT residues 7-13 with Pro6 of the peptide replaced by Ala; numbers count on: the peptide (residue 1 = Gln7 of FHIT); Pro6 is P12 of FHIT; also called analogue 3; source: synthetic peptide (Fmoc solid phase, RP-HPLC purified)
B8: the equilibrium dissociation constant (Kd) in experiment [2] amounted to 375 ± 20 nM; in experiment [4], 14 nM.

What is called ΔTm is the shift of the melting midpoint relative to a reference. As usually defined, the Kd is the constant that tells how readily two partners part at equilibrium. Lower therefore signals higher affinity.
